From the supplement of paper PMC10307832

What was measured:
Test in all cases: relative viability (nuclei count vs DMSO), 5 days (fraction); higher = more cells survive
Shikonin + Navitoclax = compound: CC(C)=CC[C@@H](O)C1=CC(=O)c2c(O)ccc(O)c2C1=O [Shikonin] + CC1(C)CCC(c2ccc(Cl)cc2)=C(CN2CCN(c3ccc(C(=O)NS(=O)(=O)c4ccc(N[C@H](CCN5CCOCC5)CSc5ccccc5)c(S(=O)(=O)C(F)(F)F)c4)cc3)CC2)C1 [Navitoclax] (partner 0.5 µM)
In short: (§1)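 For relative viability, nuclei counts in treated wells were divided by those in vehicle wells. Lung cancer cell lines had been pin-tool dosed in 1536-well plates the day after seeding and cultured for 5 days, then fixed and stained in one step (final 0.05% Triton X-100, 1% formaldehyde, 1 ug/ml Hoechst) and imaged at 4×. Doses were one drug alone or a fixed anchor-drug dose plus five library-drug doses (not always all listed) in √10 steps, and values are duplicate-plate medians.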

Shikonin + Foretinib = compound: CC(C)=CC[C@@H](O)C1=CC(=O)c2c(O)ccc(O)c2C1=O [Shikonin] + COc1cc2c(Oc3ccc(NC(=O)C4(C(=O)Nc5ccc(F)cc5)CC4)cc3F)ccnc2cc1OCCCN1CCOCC1 [Foretinib] (partner 0.25 µM)
In short: as §1

[1] = compound: CC(C)N(CCCNC(=O)Nc1ccc(C(C)(C)C)cc1)C[C@H]1O[C@@H](n2ccc3c(N)ncnc32)[C@H](O)[C@@H]1O
In short: (§2)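 After an overnight hold at 37 °C, lung cancer cell lines in 1536-well plates were pinned with five library-drug doses (not always all listed), each √10 from the next, on vehicle-anchored plates. The cells stayed 5 days without fresh medium, then a one-step fix, permeabilisation and Hoechst stain preceded 4× imaging and MetaXpress nuclear counts. A plate passed only with control CV under 25% and at least one doubling. Viability is the median, over plates, of treated-well nuclei relative to vehicle-well nuclei.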

Shikonin = compound: CC(C)=CC[C@@H](O)C1=CC(=O)c2c(O)ccc(O)c2C1=O [Shikonin]
In short: as §2

Cell Line | relative viability (Shikonin + Navitoclax; first compound 0.01 µM) | relative viability (Shikonin + Navitoclax; first compound 0.1 µM) | relative viability (Shikonin + Navitoclax; first compound 0.3162 µM) | relative viability (Shikonin + Navitoclax; first compound 1 µM) | relative viability (Shikonin + Foretinib; first compound 0.01 µM) | relative viability (Shikonin + Foretinib; first compound 0.1 µM) | relative viability (Shikonin + Foretinib; first compound 0.3162 µM) | relative viability (Shikonin + Foretinib; first compound 1 µM) | relative viability ([1]; 0.08 µM) | relative viability ([1]; 0.253 µM) | relative viability ([1]; 0.8 µM) | relative viability ([1]; 2.53 µM) | relative viability ([1]; 8 µM) | relative viability (Shikonin; 0.01 µM) | relative viability (Shikonin; 0.1 µM) | relative viability (Shikonin; 0.3162 µM) | relative viability (Shikonin; 1 µM)
NCI-H2170 | 0.578 | 0.511 | 0.58 | 0.61 | 1.03 | 0.88 | 1.06 | 1.02 | 0.972 | 0.937 | 0.924 | 1.02 | 0.975 | 1.01 | 0.866 | 1.12 | 0.99
NCI-H2087 | 1.01 | 1.15 | 1.01 | 0.917 | 1.04 | 1.07 | 1.19 | 1.1 | 1.08 | 0.934 | 0.799 | 1.15 | 1.07 | 1.33 | 1.02 | 1.12 | 1.02
NCI-H1993 | – | 0.814 | 0.936 | 1.01 | 0.782 | 0.696 | 0.767 | 0.715 | 0.86 | – | 0.905 | 0.919 | 0.922 | 0.915 | 1.01 | 0.94 | 0.974
PC-14 | 1.05 | 1.1 | 1.23 | 1.02 | 0.914 | 1 | 1.15 | 1.09 | 0.975 | 0.981 | 0.951 | 0.967 | 0.904 | 1.08 | 1 | 1.12 | 1.11
NCI-H460 | 1.16 | 1.49 | 1.25 | 1.19 | 1.09 | 0.797 | 1.12 | 0.994 | 0.982 | 0.953 | 0.935 | 0.996 | 1.02 | 1.06 | 1.07 | 1.07 | 1.05
LOU-NH91 | 0.662 | 0.646 | 0.736 | 0.664 | 0.955 | 0.934 | 1.04 | 0.9 | 0.981 | 0.908 | – | 0.979 | 1 | 0.984 | 1.04 | 1.04 | 1.02
NCI-H322M | 1.23 | 1.21 | 1.32 | 1.27 | 0.996 | 1.37 | 1.06 | 0.99 | 0.929 | 0.893 | 0.93 | 0.918 | 0.975 | 0.924 | 0.917 | 0.921 | 1.06
NCI-H596 | 0.936 | 0.911 | 0.968 | 0.907 | 0.868 | 0.824 | 0.777 | 0.941 | 0.976 | 0.795 | 0.962 | 1.11 | 1.09 | 0.935 | 0.962 | 1.04 | 1.08
NCI-H727 | 0.405 | 0.502 | 0.366 | 0.295 | 0.864 | 0.837 | 0.905 | 0.883 | 0.867 | 0.815 | 0.868 | 0.931 | 0.943 | 0.916 | 1.03 | 0.933 | 1.02
NCI-H838 | 1.12 | 1.25 | 1.28 | 1.2 | 1.08 | 1.16 | 1.2 | 0.999 | 0.92 | 0.748 | 0.931 | 0.958 | 0.904 | 1.09 | 1.04 | 1.03 | 0.988
NCI-H1793 | 0.43 | 0.379 | 0.407 | 0.76 | 0.783 | 0.737 | 0.792 | 0.59 | 0.865 | – | 0.861 | 0.891 | 0.854 | 0.926 | 1.1 | 0.85 | 0.936
